From ChEMBL document CHEMBL4725372, “Rational Design of Suprastat: A Novel Selective Histone Deacetylase 6 Inhibitor with the Ability to Potentiate Immunotherapy in Melanoma Models” (J Med Chem, 2020)
Active and inactive are the calls of the source. The calls are words filed in the database; no cut-off is given here.

Columns and labels:
HEK293 [1] = assay: Selectivity index, ratio of IC50 for human HDAC1 expressed in HEK293/T17 cells (unknown origin) to human HDAC6 expressed in HEK293/T17 cells; format: cell-based
HEK293 [2] = assay: Selectivity index, ratio of IC50 for human HDAC2 expressed in HEK293/T17 cells (unknown origin) to human HDAC6 expressed in HEK293/T17 cells; format: cell-based
HEK293 [3] = assay: Selectivity index, ratio of IC50 for human HDAC3 expressed in HEK293/T17 cells (unknown origin) to human HDAC6 expressed in HEK293/T17 cells; format: cell-based
HEK293 [4] = assay: Selectivity index, ratio of IC50 for human HDAC5 expressed in HEK293/T17 cells (unknown origin) to human HDAC6 expressed in HEK293/T17 cells; format: cell-based
HEK293 [5] = assay: Selectivity index, ratio of IC50 for human HDAC9 expressed in HEK293/T17 cells (unknown origin) to human HDAC6 expressed in HEK293/T17 cells; format: cell-based
[6] = Half life in SGF by LC-MS/MS analysis; format: ADME
[7] = Half life in rat liver microsome at 10 uM by LC-MS/MS analysis; format: ADME; settings: liver microsomes
[8] = Protein binding in human plasma at 10 uM incubated for 1 hr by LC-MS/MS analysis; format: ADME, cell-free; settings: read-out: PPB (converted)
[9] = molecular target: T1, Protein deacetylase HDAC6 (Mus musculus) (UniProt Q9Z2V5); assay: Inhibition of HDAC6 in INFgamma and LPS-induced mouse bone marrow derived macrophages assessed as decrease in IL10 gene expression at 5 uM by quantitative PCR analysis; format: tissue-based; settings: Macrophage
T1 sequence (whole entry): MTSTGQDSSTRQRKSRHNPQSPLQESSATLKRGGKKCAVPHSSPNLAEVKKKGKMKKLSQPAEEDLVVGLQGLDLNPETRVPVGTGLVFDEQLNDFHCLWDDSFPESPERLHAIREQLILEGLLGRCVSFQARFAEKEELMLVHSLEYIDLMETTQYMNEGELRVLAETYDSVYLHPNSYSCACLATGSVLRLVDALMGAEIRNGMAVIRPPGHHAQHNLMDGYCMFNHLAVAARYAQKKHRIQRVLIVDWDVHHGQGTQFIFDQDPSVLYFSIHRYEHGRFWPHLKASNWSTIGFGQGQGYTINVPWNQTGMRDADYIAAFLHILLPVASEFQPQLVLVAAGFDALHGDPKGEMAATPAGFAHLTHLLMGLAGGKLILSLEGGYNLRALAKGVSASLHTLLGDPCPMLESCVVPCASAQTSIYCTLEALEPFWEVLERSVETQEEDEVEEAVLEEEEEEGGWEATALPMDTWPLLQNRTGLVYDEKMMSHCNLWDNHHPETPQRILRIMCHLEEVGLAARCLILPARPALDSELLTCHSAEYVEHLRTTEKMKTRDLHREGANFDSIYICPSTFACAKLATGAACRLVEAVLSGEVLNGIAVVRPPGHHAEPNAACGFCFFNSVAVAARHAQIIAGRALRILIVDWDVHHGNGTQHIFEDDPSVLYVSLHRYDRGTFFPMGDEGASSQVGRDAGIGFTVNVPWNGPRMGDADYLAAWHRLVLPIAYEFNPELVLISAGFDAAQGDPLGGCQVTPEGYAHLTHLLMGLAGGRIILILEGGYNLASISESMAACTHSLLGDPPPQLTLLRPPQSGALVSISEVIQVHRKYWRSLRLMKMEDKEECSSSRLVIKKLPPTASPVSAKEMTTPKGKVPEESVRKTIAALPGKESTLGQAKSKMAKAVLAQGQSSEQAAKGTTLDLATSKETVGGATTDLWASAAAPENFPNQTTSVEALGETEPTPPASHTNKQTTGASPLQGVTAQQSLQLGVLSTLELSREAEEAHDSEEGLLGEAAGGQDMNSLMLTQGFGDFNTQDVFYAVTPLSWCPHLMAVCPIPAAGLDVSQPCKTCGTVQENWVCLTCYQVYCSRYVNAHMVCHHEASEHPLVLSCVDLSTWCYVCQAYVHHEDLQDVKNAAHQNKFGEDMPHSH

[10] = molecular target: T1, Protein deacetylase HDAC6 (Mus musculus); assay: Inhibition of human HDAC6 in mouse RAW264.7 cells assessed as increase in acetylated alpha-tubulin levels at 1 to 10 uM by immunoblot analysis; format: cell-based; settings: Macrophage, dose microM 1-10
SM1 = assay: Potentiation of antitumor immune response in C57BL/6 mouse harboring mouse SM1 cells assessed as decrease in tumor burden at 25 mg/kg, ip dosed 5 days per week before starting 15 mg/kg, ip anti-PD1 immune checkpoint blockade therapy measured on day 14; format: functional, organism-based; settings: time 14.0 day
Mus musculus [11] = assay: Immunomodulatory activity in C57BL/6 mouse harboring mouse SM1 cells assessed as effect on number of F4/80+ CD80+ H2+ antitumor M1 macrophages at 25 mg/kg, ip dosed 5 days per week before starting 15 mg/kg, ip anti-PD1 immune checkpoint blockade therapy by flow cytometry; format: functional, organism-based; settings: time 5.0 day/week
Mus musculus [12] = assay: Immunomodulatory activity in C57BL/6 mouse harboring mouse SM1 cells assessed as increase in M1/M2 macrophages ratio at 25 mg/kg, ip dosed 5 days per week before starting 15 mg/kg, ip anti-PD1 immune checkpoint blockade therapy by flow cytometry; format: functional, organism-based; settings: time 5.0 day/week
Mus musculus [13] = assay: Immunomodulatory activity in C57BL/6 mouse harboring mouse SM1 cells assessed as increase in M1/M2 macrophages ratio at 25 mg/kg, ip dosed 5 days per week by flow cytometry; format: functional, organism-based; settings: time 5.0 day/week
Mus musculus [14] = assay: Immunomodulatory activity in C57BL/6 mouse harboring mouse SM1 cells assessed as increase in CD8+ effector T-cells and effector memory cells at 25 mg/kg, ip dosed 5 days per week by flow cytometry; format: functional, organism-based; settings: time 5.0 day/week
Mus musculus [15] = assay: Immunomodulatory activity in C57BL/6 mouse harboring mouse SM1 cells assessed as increase in CD8+ effector T-cells and effector memory cells at 25 mg/kg, ip dosed 5 days per week before starting 15 mg/kg, ip anti-PD1 immune checkpoint blockade therapy by flow cytometry; format: functional, organism-based; settings: time 5.0 day/week
Mus musculus [16] = assay: Immunomodulatory activity in C57BL/6 mouse harboring mouse SM1 cells assessed as increase in CD8+ central memory cells at 25 mg/kg, ip dosed 5 days per week by flow cytometry; format: functional, organism-based; settings: time 5.0 day/week
Mus musculus [17] = assay: Immunomodulatory activity in C57BL/6 mouse harboring mouse SM1 cells assessed as effect on CD4+ T cells at 25 mg/kg, ip dosed 5 days per week before starting 15 mg/kg, ip anti-PD1 immune checkpoint blockade therapy by flow cytometry; format: functional, organism-based; settings: time 5.0 day/week
Mus musculus [18] = assay: Immunomodulatory activity in C57BL/6 mouse harboring mouse SM1 cells assessed as effect on immunosuppressive T-regs at 25 mg/kg, ip dosed 5 days per week by flow cytometry; format: functional, organism-based; settings: time 5.0 day/week
Mus musculus [19] = assay: Immunomodulatory activity in C57BL/6 mouse harboring mouse SM1 cells assessed as increase in natural killer cells at 25 mg/kg, ip dosed 5 days per week before starting 15 mg/kg, ip anti-PD1 immune checkpoint blockade therapy by flow cytometry; format: functional, organism-based; settings: time 5.0 day/week
Mus musculus [20] = assay: Immunomodulatory activity in C57BL/6 mouse harboring mouse SM1 cells assessed as reduction in natural killer T cells at 25 mg/kg, ip dosed 5 days per week before by flow cytometry; format: functional, organism-based; settings: time 5.0 day/week

half-life [6]: > 5 h
half-life at 10 µM [7]: 2.95 h
fraction unbound at 1 h, 10 µM [8]: 0.981
inhibition [9]: Active
inhibition [10]: Dose-dependent effect
Compound: NCc1ccc(NC(=O)N(CCCCO)Cc2ccc(C(=O)NO)cc2)cc1
Ratio IC50 (HEK293 [1]): 293
Ratio IC50 (HEK293 [2]): 440
Ratio IC50 (HEK293 [3]): 880
Ratio IC50 (HEK293 [4]): 8550
Ratio IC50 (HEK293 [5]): 15700
TGI (SM1): Active
Activity (Mus musculus [11]): inactive
Activity (Mus musculus [12]): Active
Activity (Mus musculus [13]): Active
Activity (Mus musculus [14]): Active
Activity (Mus musculus [15]): Active
Activity (Mus musculus [16]): Active
Activity (Mus musculus [17]): inactive
Activity (Mus musculus [18]): inactive
Activity (Mus musculus [19]): Active
Activity (Mus musculus [20]): Active
